Data taken from patent publication US11344532B2, “Topically administrable formulation for the control and prevention of animal parasites” (BAYER ANIMAL HEALTH GMBH, priority 2017, dated 2022).
Like-named read-outs stand apart in the source and are kept apart here.

Assays:
[1] = skin compatibility of triethyl phosphate; details: with rats, dogs and cats
[2] = toxicity of triethyl phosphate
[3] = solubilities of active compounds in solvents; format: physicochemical
Method: The flash point of 130° C. is sufficiently high for safe production. Studies with selected fluorinated antiparasitics in triethyl phosphate formulations show good and long-lasting activity against fleas and various ticks on dogs and cats.

[4] = solvent 83.3% propylene carbonate 16.7% benzyl alcohol

Row | Compound | skin compatibility [1] | toxicity [2] | solubility in 83.3% propylene carbonate 16.7% benzyl alcohol [3, 4] | solubility in propylene carbonate ([3]; solvent propylene carbonate) | solubility in triethyl phosphate ([3]; solvent triethyl phosphate) | solubility in 83.3% propylene carbonate 16.7% benzyl alcohol [3] | solubility in propylene carbonate [3] | solubility in triethyl phosphate [3]
1 | CCOP(=O)(OCC)OCC [Triethyl phosphate, triethyl phosphate] | excellent skin compatibility | low toxicity |  |  |  |  |  | 
2 | O=C(NC1CC1)c1cc(-c2cnn(-c3c(Cl)cc(C(F)(C(F)(F)F)C(F)(F)F)cc3OC(F)(F)F)c2)cnc1Cl [Compound 1, 2-chloro-5-[1-[2-chloro-4-[1,2,2,2-tetrafluoro-1-(trifluoromethyl)ethyl]-6-(trifluoromethoxy)phenyl]-1H-pyrazol-4-yl]-N-cyclopropyl-3-pyridinecarboxamide] |  |  | 17% (w/w) | 5% (w/w) | 44% (w/w) |  |  | 
3 | O=C(NC1CC1)c1cc(-c2cnn(-c3c(Cl)cc(C(F)(C(F)(F)F)C(F)(F)F)cc3C(F)(F)F)c2)cnc1Cl [Compound 2, 2-chloro-5-[1-[2-chloro-4-[1,2,2,2-tetrafluoro-1-(trifluoromethyl)ethyl]-6-(trifluoromethyl)phenyl]-1H-pyrazol-4-yl]-N-cyclopropyl-3-pyridinecarboxamide] |  |  | 14% (w/w) | 4% (w/w) | 40% (w/w) |  |  | 
4 | N#Cc1nn(-c2c(Cl)cc(C(F)(F)F)cc2Cl)c(NCc2ccccn2)c1SC(F)F [pyriprole] |  |  | 28% (w/w) | 21% (w/w) | 49% (w/w) |  |  | 
5 | N#Cc1nn(-c2c(Cl)cc(C(F)(F)F)cc2Cl)c(N)c1[S+]([O-])C(F)(F)F (centres unmarked) [fipronil] |  |  |  |  |  | 5% (w/w) | 11% (w/w) | 36% (w/w)
6 | Cn1nc(C(F)(F)C(F)(F)F)c(C(F)(F)F)c1-n1cc(-c2ccc(Cl)c(C(=O)NC3(C#N)CC3)c2)cn1 [tigolaner] |  |  | 20% (w/w) | 26% (w/w) | 52% (w/w) |  |  | 
7 | CON=CNC(=O)c1ccc(C2=NOC(c3cc(Cl)cc(Cl)c3)(C(F)(F)F)C2)cc1C (centres unmarked) [fluxametamide] |  |  | 6% (w/w) | 3% (w/w) | 20% (w/w) |  |  | 
8 | Cc1cc(C2=NOC(c3cc(Cl)cc(Cl)c3)(C(F)(F)F)C2)ccc1C(=O)NCC(=O)NCC(F)(F)F (centres unmarked) [fluralaner] |  |  | 13% (w/w) | 7% (w/w) | 41% (w/w) |  |  | 
